Test results: patent US20230346705A1, “NANOPARTICLES FOR TREATING OR PREVENTING A CARDIOMYOPATHY AND ANTHRACYCLINE-CYTOTOXICITY, AND THEIR ADMINISTRATION AS AN AEROSOL” (INSTITUT NATIONAL DE LA SANTE ET DE LA RECHERCHE MEDICALE …, priority 2020, published 2023)

Tests used:
H9C2 cells [1] = test: Lysosomal pH (Acridine Orange, Lysosensor) in H9C2; type: cell-based, Rat
Protocol: Acridine Orange (Sigma Aldrich), a weak base which accumulates in acidic organelles, was used to label the lysosomes. After treatments, cells were incubated with 5 μM AO for 10 min at 37° C. and washed twice with PBS. Red fluorescence (corresponding to acidic vesicles staining) was measured using a Varioskan Flash Multimode Microplate Reader with excitation/emission at 480/630 nm. Representative pictures were taken with an epifluorescence microscope (DM600 microscope, Leica).
Lysosomal acidification was measured in H9C2 and NRVMs loaded with 2 μM LysoSensor yellow/blue DND-160 (Invitrogen) for 15 min at 37° C. The LysoSensor dye is a ratiometric probe that produces yellow fluorescence in acidic environments, but changes to blue fluorescence in neutral environments. pH calibration was performed following the protocol established by Diwu et al. (Chem Biol. (1999); 6(7):411-418). Briefly, cells were incubated in MES buffer (5 mMNaCl, 115 mMKCl, 1.3 mM MgSO 4, 25 mM MES) supplemented with 10 μM nigericin and 10 μM monensin, for 10 min, with pH adjusted to a range from 3 to 7. The samples were read in a Varioskan Flash Multimode Microplate Reader with excitation at 360 nm. The ratio of emission 440/540 nm was then calculated for each sample.

H9C2 cells [2] = test: Autophagosomes/autolysosomes visualization (GFP-LC3, RFP-GFP-LC3) in H9C2; type: cell-based, Rat
Protocol: Autophagosomes were visualized in GFP-LC3-transduced cells. Autophagic flux was evaluated in RFP-GFP-LC3-transduced cells. Representative images were taken with an epifluorescence microscope (DM600 microscope, Leica) and quantification of yellow puncta (autophagosomes) and red puncta (autolysosomes) was performed using Image J software.

LC3-II and p62 = test: Western blot of autophagy markers LC3-II and p62 in H9C2; type: cell-based, Rat; details: H9C2, Baf A1 treatment alone
Protocol: H9C2 or NRVMs extracts were prepared by lysing in RIPA buffer (50 mM Tris pH 7.2, 500 mM NaCl, 1% Triton X-100, 1 mM EDTA, 100 mM sodium fluoride, 5 mM sodium metavanadate, 10 mM sodium pyrophosphate) and equal protein amounts were subjected to sodium dodecyl sulfate-polyacrylamide gel electrophoresis (SDS-PAGE) in 10-15% gels depending upon protein molecular weight. After electrophoresis, proteins were transferred to nitrocellulose membranes and incubated with the following antibodies: anti-GAPDH, anti-LC3B, anti-cleaved caspase 3, anti-p-p53 from Cell Signaling Technology, anti-p62 from Abnova, anti-Lamp1, anti-cathepsin D from Abcam. Proteins were detected by chemiluminescence with a Bio-Rad ChemiDoc XRS camera. Relative densities were quantified using the ImageLab 5.2.1 software (Bio-Rad). All data were normalized by internal controls.

[3] = tested on: neonatal rat ventricular myocytes (NRVMs); test: Cell death / toxicity (LDH release) in NRVMs; type: cell-based; details: doxorubicin 1 μM alone
Protocol: (§1) Rat H9C2 cardiomyoblasts (American Type Culture Collection, Rockville, U.S.A.) were grown in DMEM media containing 10% heat-inactivated FBS under 5% CO2 and 95% air at 37° C. H9C2 serve as an animal-free alternative sharing many physiological properties of primary cardiac cells. For neonatal rat ventricular myocytes (NRVMs), rats of 1-2 days old were euthanized and hearts were excised before the atria were removed. Primary culture of NRVMs was subsequently performed as previously described (Manzella et al. 2018; Aging Cell 17(5):e12811). NRVMs were grown in Ham-F12 medium containing 10% heat-inactivated FBS and 10% heat-inactivated HS under 5% CO2 and 95% air at 37° C. Plasmid transfections with GFP-LC3, GFP-RFP-LC3 or RFP-LAMP1 constructs (Addgene) were performed using Lipofectamine 2000 reagent (Life Technologies) in Opti-MEM™ transfection medium (Gibco). […]
For quantitative assessment of cardiomyocyte necrosis, LDH release in culture medium was measured using the LDH cytotoxicity assay kit according to the manufacturer's instructions (Biovision). Apoptosis was measured in NRVMs by caspase-3 activation using a commercial kit (Biotium) according to the manufacturer's instructions.

H9C2 cells [4] = test: Mitochondrial membrane potential (JC-1 probe) in H9C2; type: cell-based, Rat; details: H9C2, 10 h after doxorubicin 1 μM alone
Protocol: The mitochondrial membrane potential was evaluated using JC-1 probe (ThermoFisher Scientific). Before the end of treatments, cells were loaded with JC-1 probe at a concentration of 5 μg/ml for 10 min at 37° C. Then, medium was replaced by HBSS and the fluorescence was recorded at 535 nm (excitation wavelength, emission at 590 nm) to measure the formation of red aggregates and at 485 (excitation wavelength, emission at 530 nm) to measure the presence of green monomers, using a fluorimeter TECAN infinite pro F200. Representative images were taken with an epifluorescence microscope (DM600 microscope, Leica).

[5] = tested on: neonatal rat ventricular myocytes (NRVMs); test: Mitochondrial ROS (mitoSOX) in NRVMs; type: cell-based; details: doxorubicin 250 nM alone
Protocol: (§2) Cellular ROS were measured using the fluorescent probe DCFDA assay at a concentration of 5 μM (ThermoFisher Scientific). Fluorescence was quantified using a fluorimeter TECAN infinite proF200 with excitation/emission at 500/530 nm. Mitochondrial ROS were measured by mitoSOX probe (Invitrogen, Molecular Probes). Briefly, the cells were loaded with mitoSOX probe at a final concentration of 5 μM and incubated for 30 min after the indicated treatments. Cells were resuspended in HBSS before reading in Tecan plate reader.

[6] = tested on: neonatal rat ventricular myocytes (NRVMs); test: Lysosomal pH (Acridine Orange, Lysosensor) in NRVMs; type: cell-based; details: doxorubicin 250 nM alone
Protocol: as §1, with “C.” for “C. Plasmid transfections with GFP-LC3, GFP-RFP-LC3 or RFP-LAMP1 constructs (Addgene) were performed using Lipofectamine 2000 reagent (Life Technologies) in Opti-MEM™ transfection medium (Gibco).”
Acridine Orange (Sigma Aldrich), a weak base which accumulates in acidic organelles, was used to label the lysosomes. […] Red fluorescence (corresponding to acidic vesicles staining) was measured using a Varioskan Flash Multimode Microplate Reader with excitation/emission at 480/630 nm. […]
Lysosomal acidification was measured in H9C2 and NRVMs loaded with 2 μM LysoSensor yellow/blue DND-160 (Invitrogen) for 15 min at 37° C. The LysoSensor dye is a ratiometric probe that produces yellow fluorescence in acidic environments, but changes to blue fluorescence in neutral environments. pH calibration was performed following the protocol established by Diwu et al. (Chem Biol. (1999); 6(7):411-418). […]

H9C2 cells [7] = test: Cellular ROS (DCFDA) in H9C2; type: cell-based, Rat; details: H9C2, 10 h after doxorubicin 1 μM alone
Protocol: as §2

[8] = H9C2, Bafilomycin A1 100 nM alone

mitochondrial membrane potential (JC-1) (H9C2 cells [4])	mitochondrial ROS (mitoSOX) [5]	oxidative stress (ROS, DCFDA) (H9C2 cells [7])	SMILES	Acridine Orange red puncta (lysosomal acidification) (H9C2 cells [1]; [8])	lysosomal pH (Lysosensor) (H9C2 cells [1]; [8])	autophagic flux, tandem RFP-GFP-LC3 reporter (H9C2 cells [2]; H9C2, Baf A1 alone)	autophagosomes in GFP-LC3-transduced cells (H9C2 cells [2]; H9C2, Baf A1 treatment alone)	LC3-II and p62 protein levels (LC3-II and p62)	AO red fluorescence (H9C2 cells [1]; H9C2, doxorubicin 1 μM alone)	lysosomal pH (lysosensor blue/yellow ratio) (H9C2 cells [1]; H9C2, doxorubicin 1 μM alone)	cell death at the dose used in prior experiments [3]	autolysosomes (AL), GFP-RFP-LC3 reporter (H9C2 cells [2]; H9C2, doxorubicin 1 μM alone)	number of autophagosomes (AP), GFP-RFP-LC3 reporter (H9C2 cells [2]; H9C2, doxorubicin 1 μM alone)	duration of A.O. red fluorescence alteration [6]	A.O. red fluorescence ([6]; 24 h)
			CO/C1=C\C(C)=C\[C@@H](C)[C@@H](O)[C@@H](C)C/C(C)=C/C=C/[C@H](OC)[C@@H]([C@@H](C)[C@@H](O)[C@H](C)[C@@]2(O)C[C@@H](O)[C@H](C)[C@@H](C(C)C)O2)OC1=O [Baf A1, Bafilomycin A1]	loss of Acridine Orange (AO) red puncta	rise in lysosomal pH	accumulation of red+green autophagosomes (AP) and to the reduction of red-only autolysosomes	accumulation of autophagosomes (AP)	increased LC3-II and p62 protein levels							
drop in mitochondrial membrane potential	mitochondrial ROS increase	accumulation of oxidative stress	COc1cccc2c1C(=O)c1c(O)c3c(c(O)c1C2=O)C[C@@](O)(C(=O)CO)C[C@@H]3O[C@H]1C[C@H](N)[C@H](O)[C@H](C)O1 [doxorubicin]						significantly decreased AO red fluorescence	increased lysosomal pH	rapid cell death in only 24 hours	accumulation of autolysosomes (AL)	remained unchanged	maintained until 40 h	decrease in A.O. red fluorescence
